The NIST ThermoML archive (doi:10.1021/je020220n)
Where “and” joins values, the source holds several entries; their conditions need not be identical. Identical values can stand only once.

Conditions: Crystal

[I][Er]([I])[I] [erbium iodide]
Conditions	vapor or sublimation pressure
871 K	5.37e-05 kPa
873 K	5.37e-05 kPa
876 K	8.51e-05 kPa
884 K	0.0001072 kPa
886 K	7.94e-05 kPa and 0.0001047 kPa and 5.75e-05 kPa
889 K	9.33e-05 kPa
890 K	0.0001047 kPa
891 K	0.0001479 kPa
897 K	0.0001349 kPa
898 K	0.0001349 kPa and 0.0001905 kPa
903 K	0.0001622 kPa and 0.0002089 kPa
904 K	0.0002344 kPa and 0.0002089 kPa
906 K	0.0001995 kPa
907 K	0.0001288 kPa
912 K	0.0002138 kPa and 0.0003162 kPa
913 K	0.0002692 kPa and 0.000302 kPa
915 K	0.0002344 kPa
916 K	0.0001738 kPa
918 K	0.0002951 kPa and 0.0004074 kPa
923 K	0.0004169 kPa
924 K	0.0005129 kPa and 0.0003388 kPa
928 K	0.0002754 kPa
929 K	0.0003715 kPa
930 K	0.000631 kPa and 0.000537 kPa and 0.0005754 kPa
932 K	0.0004169 kPa
934 K	0.0002884 kPa
936 K	0.0006166 kPa and 0.0008318 kPa
937 K	0.0003631 kPa
939 K	0.0007586 kPa
940 K	0.0005623 kPa and 0.000537 kPa and 0.0007586 kPa
943 K	0.001071 kPa
945 K	0.0004786 kPa
946 K	0.0005129 kPa
947 K	0.0007413 kPa
948 K	0.000955 kPa
949 K	0.001349 kPa and 0.001023 kPa and 0.001047 kPa
950 K	0.0007762 kPa
952 K	0.000537 kPa
955 K	0.0006457 kPa
956 K	0.001698 kPa
957 K	0.0009772 kPa
958 K	0.001445 kPa
959 K	0.00123 kPa
961 K	0.0007413 kPa
962 K	0.001698 kPa
963 K	0.001698 kPa and 0.001202 kPa and 0.0008913 kPa
966 K	0.00195 kPa and 0.001023 kPa
968 K	0.00257 kPa
969 K	0.001514 kPa
971 K	0.001906 kPa
972 K	0.00123 kPa
973 K	0.002455 kPa
974 K	0.003162 kPa and 0.00257 kPa and 0.001175 kPa
976 K	0.002042 kPa
978 K	0.002884 kPa
979 K	0.002951 kPa
980 K	0.003802 kPa and 0.001622 kPa
981 K	0.001778 kPa
982 K	0.002512 kPa
983 K	0.003388 kPa
984 K	0.003548 kPa
986 K	0.003236 kPa
987 K	0.00182 kPa
988 K	0.002089 kPa
989 K	0.004266 kPa
990 K	0.003236 kPa
992 K	0.004266 kPa and 0.004467 kPa
994 K	0.004786 kPa
995 K	0.002951 kPa
996 K	0.002754 kPa
997 K	0.004169 kPa
999 K	0.004786 kPa and 0.005754 kPa
1001 K	0.00631 kPa and 0.002884 kPa
1004 K	0.006457 kPa and 0.005129 kPa
1006 K	0.006918 kPa
1007 K	0.007079 kPa
1008 K	0.004677 kPa and 0.00389 kPa
1010 K	0.007943 kPa
1011 K	0.008318 kPa
1012 K	0.006761 kPa
1015 K	0.004571 kPa
1016 K	0.005129 kPa
1017 K	0.01 kPa
1018 K	0.008128 kPa
1019 K	0.01047 kPa
1026 K	0.01318 kPa
1030 K	0.006918 kPa
1036 K	0.01778 kPa
1045 K	0.01023 kPa
1046 K	0.02455 kPa
1059 K	0.03548 kPa
1070 K	0.04898 kPa
1082 K	0.06918 kPa

[Cl][Er]([Cl])[Cl] [erbium trichloride]
Conditions	vapor or sublimation pressure
880 K	1.07e-05 kPa
892 K	1.58e-05 kPa
897 K	2.14e-05 kPa
903 K	2.69e-05 kPa
907 K	1.7e-05 kPa and 3.24e-05 kPa
913 K	4.27e-05 kPa
916 K	5.13e-05 kPa
920 K	3.39e-05 kPa
921 K	5.89e-05 kPa
923 K	3.39e-05 kPa
925 K	4.27e-05 kPa and 6.92e-05 kPa
929 K	5.01e-05 kPa
932 K	5.01e-05 kPa and 4.27e-05 kPa
933 K	0.0001023 kPa
935 K	5.01e-05 kPa and 0.0001072 kPa
936 K	6.76e-05 kPa
943 K	0.0001445 kPa [middle of 4 runs]
948 K	0.0001349 kPa
949 K	8.51e-05 kPa
950 K	0.0001995 kPa
951 K	0.0001995 kPa
952 K	0.0001175 kPa
953 K	0.0001349 kPa
954 K	0.0001 kPa
958 K	0.0001514 kPa and 0.0001862 kPa
959 K	0.0002754 kPa
960 K	0.0002754 kPa
963 K	0.0001698 kPa [middle of 4 runs]
968 K	0.0002188 kPa and 0.0002692 kPa and 0.0003715 kPa
970 K	0.0002188 kPa and 0.0003802 kPa
972 K	0.0002692 kPa
976 K	0.0002344 kPa
977 K	0.0003981 kPa and 0.0002455 kPa
978 K	0.0003236 kPa
981 K	0.0003715 kPa
983 K	0.0004898 kPa
986 K	0.0004365 kPa
988 K	0.0003467 kPa
990 K	0.000631 kPa and 0.0004074 kPa and 0.0005012 kPa
995 K	0.0005754 kPa and 0.000631 kPa
997 K	0.0008318 kPa
998 K	0.0004786 kPa
999 K	0.0006761 kPa
1003 K	0.0006607 kPa and 0.0008511 kPa
1004 K	0.0007762 kPa
1008 K	0.0009333 kPa and 0.0006761 kPa
1012 K	0.001071 kPa
1013 K	0.001097 kPa
1014 K	0.001412 kPa
1016 K	0.001071 kPa
1017 K	0.001288 kPa
1018 K	0.0009333 kPa
1021 K	0.001445 kPa
1022 K	0.001514 kPa
1025 K	0.00195 kPa and 0.001698 kPa
1028 K	0.001318 kPa
1030 K	0.001514 kPa and 0.00195 kPa
1031 K	0.002138 kPa
1033 K	0.002512 kPa
1034 K	0.002512 kPa
1037 K	0.002455 kPa
1040 K	0.002818 kPa and 0.003162 kPa and 0.002344 kPa

[Br][Er]([Br])[Br] [erbium bromide (ErBr3)]
Conditions	vapor or sublimation pressure
919 K	2.82e-05 kPa
930 K	4.17e-05 kPa and 7.08e-05 kPa
941 K	7.08e-05 kPa
942 K	8.91e-05 kPa and 0.0001122 kPa
948 K	9.77e-05 kPa
952 K	0.000123 kPa
954 K	0.0001413 kPa
956 K	0.000182 kPa
959 K	0.0001413 kPa
961 K	0.0001995 kPa
962 K	0.0001778 kPa
964 K	0.000195 kPa
966 K	0.0001995 kPa
968 K	0.000182 kPa
970 K	0.0002692 kPa and 0.0002455 kPa
971 K	0.0002951 kPa
973 K	0.0002692 kPa
977 K	0.0003467 kPa
979 K	0.0003311 kPa and 0.0002818 kPa
982 K	0.0003631 kPa
984 K	0.0004898 kPa
988 K	0.0004786 kPa
989 K	0.0004677 kPa
990 K	0.0004898 kPa
993 K	0.0005623 kPa and 0.0004169 kPa
998 K	0.000631 kPa and 0.0006166 kPa and 0.0007943 kPa
1004 K	0.0009333 kPa
1007 K	0.0008318 kPa
1008 K	0.0006761 kPa and 0.0008511 kPa
1009 K	0.000871 kPa
1010 K	0.0009772 kPa
1015 K	0.001349 kPa
1018 K	0.001148 kPa and 0.001122 kPa
1020 K	0.001 kPa
1025 K	0.001698 kPa and 0.001445 kPa
1026 K	0.001514 kPa
1028 K	0.002089 kPa
1033 K	0.002138 kPa and 0.001585 kPa
1036 K	0.002042 kPa and 0.00257 kPa and 0.002089 kPa
1045 K	0.002951 kPa and 0.002818 kPa
1051 K	0.003631 kPa
1056 K	0.00389 kPa
1058 K	0.004365 kPa
